Results reported in PubChem BioAssay (NCI).
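Where inhibition never reached the appropriate level, the endpoint shown equals the highest concentration tested. Otherwise, values were interpolated linearly from a five-concentration, 48-hour dose response in 96-well plates. At the TGI there is no net growth.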

What was measured:
Assay in all cases: NCI tumour cell line growth inhibition, 48 h
[1] = system: U251 CNS
[2] = system: DMS 114 small cell lung
[3] = system: MALME-3M melanoma
[4] = system: SW-620 colon
[5] = system: UACC-62 melanoma
[6] = system: SK-MEL-5 melanoma
[7] = system: SN12C renal
[8] = system: CAKI-1 renal
[9] = system: RXF 393 renal
[10] = system: SNB-75 CNS
[11] = system: UACC-257 melanoma
[12] = system: OVCAR-3 ovarian
[13] = system: K-562 leukemia
[14] = system: A549 NSCLC
[15] = system: UO-31 renal
[16] = system: EKVX NSCLC
[17] = system: NCI-H522 lung
[18] = system: OVCAR-8 ovarian
[19] = system: NCI-H460 lung
[20] = system: MOLT-4 leukemia
[21] = system: HOP-18 NSCLC
[22] = system: OVCAR-5 ovarian
[23] = system: LXFL 529 NSCLC
[24] = system: DMS 273 small cell lung
[25] = system: KM12 colon
[26] = system: M19-MEL melanoma
[27] = system: RPMI-8226 leukemia
[28] = system: HOP-92 NSCLC
[29] = system: M14 melanoma
[30] = system: ACHN renal
[31] = system: HCT-15 colon
[32] = system: NCI-H226 lung
[33] = system: TK-10 renal
[34] = system: OVCAR-4 ovarian
[35] = system: 786-0 renal
[36] = system: HCT-116 colon
[37] = system: HT29 colon
[38] = system: HOP-62 NSCLC
[39] = system: SF-539 CNS
[40] = system: IGROV1 ovarian
[41] = system: LOX IMVI melanoma
[42] = system: SNB-78 CNS
[43] = system: NCI-H23 lung
[44] = system: HCC-2998 colon
[45] = system: HL-60(TB) leukemia
[46] = system: DLD-1 colon
[47] = system: SF-295 CNS
[48] = system: XF 498 CNS
[49] = system: SNB-19 CNS
[50] = system: KM20L2 colon
[51] = system: CCRF-CEM leukemia
[52] = system: A498 renal
[53] = system: SK-MEL-28 melanoma
[54] = system: SF-268 CNS
[55] = system: SK-MEL-2 melanoma
[56] = system: SK-OV-3 ovarian
[57] = system: SR leukemia
[58] = system: COLO 205 colon

Measured: TGI

Cc1ccc(NC(=O)CCC(=O)C(C#N)c2ccc(Cl)cc2)cc1C (configuration not stated)
not listed: [56] | [57] | [58]
> 100 µM: all other assays above

C/C(=N\N=C(N)N)c1sc(-c2nc(C)c(/C(C)=N/N=C(N)N)s2)nc1C
> 77 µM: [17]
> 95.3 µM: [9]
> 66.4 µM: [57]
88.2 µM: [45]
> 90.6 µM: [58]
> 68.5 µM: [35]
> 66.9 µM: [31]
> 58.3 µM: [41]
not listed: [2]
> 100 µM: all other assays above
